{"source": "BindingDB's records for doi:10.1021/jm980217s", "about": "(Abbott Laboratories, 1998)"}
{"assay": "Binding affinity for endothelin B receptor by measuring its ability to displace [125I]-ET-3 from porcine cerebellar tissue", "units": {"IC50": "µM"}}
{"smiles": "CCCCN(CCCC)C(=O)CN1C[C@H](c2ccc3c(c2)OCO3)[C@@H](C(=O)O)[C@@H]1CC(CCC)CCC", "note": "[(2S,3R,4S)-4-Benzo[1,3]dioxol-5-yl-1-dibutylcarbamoylmethyl-2-(2-propyl-pentyl)-pyrrolidine-3-carboxylic acid]", "IC50": 95}
{"smiles": "CCCCN(CCCC)C(=O)CN1C[C@H](c2ccc3c(c2)OCO3)[C@@H](C(=O)O)[C@@H]1CC(C)(C)C1OCCO1", "note": "[(2S,3R,4S)-4-Benzo[1,3]dioxol-5-yl-1-dibutylcarbamoylmethyl-2-(2-[1,3]dioxolan-2-yl-2-methyl-propyl)-pyrrolidine-3-carboxylic acid]", "IC50": "> 100"}
{"smiles": "CCCCN(CCCC)C(=O)CN1C[C@H](c2ccc3c(c2)OCO3)[C@@H](C(=O)O)[C@@H]1CC(C)CCC", "note": "(stereo partly drawn) [(2S,3R,4S)-4-Benzo[1,3]dioxol-5-yl-1-dibutylcarbamoylmethyl-2-(2-methyl-pentyl)-pyrrolidine-3-carboxylic acid]", "IC50": 71}
